Test results reported in patent US7816389B2, “Organic compounds” (Nabriva Therapeutics Forschungs GmbH, priority 2006, dated 2010).
Converted amounts (≈) assume the structure as drawn.

Experiments:
Assay type in all cases: cell-based
[1] = tested on: Escherichia coli ATCC25922 B1; assay: MIC determination according to CLSI; conditions: ATCC25922, strain B1
Text: (§1) For example, the compounds of the present invention show antimicrobial, e.g. antibacterial, activity against gram positive bacteria, such as coagulase-positive and coagulase-negative Staphylococci, e.g. Staphylococcus aureus, Styphylococcus epidermis, Staphylococcus haemolyticus, Streptococci, e.g. Streptococcus pyogenes, Streptococcus pneumoniae, Streptococcus agalacticae, Enterococci, e.g. Enterococcus faecium and Moraxellaceae, e.g. Moraxella catarrhalis, Pasteurellaceae, e.g. Haemophilus influenzae, as well as against Mycoplasmactaceae, Chlamydiaceae, e.g. Chlamydia trachomatis, Chlamydia pneumoniae and obligatory anaerobes, e.g. Bacteroides fragilis, Clostridium difficile; in vitro in the Agar Dilution Test or Microdilution Test according to the Climical and Laboratory Standards Institute (CLSI, former National Commitee for Clinical Laboratory Standards (NCCLS) 2006, Document M7-A7 Vol. 26, No. 2: “Methods for dilution Antimicrobial Susceptibility Tests for Bacteria that Grow Aerobically—Seventh Edition, Approved Standard”; and in the in vitro determination of the antibacterial activity against anaerobic bacteria according to National Committee for Clinical Laboratory Standards (NCCLS) VOL. 24, No. 2, M11-A5, Methods for Antimicrobal Susceptibility Testing of Anaerobic Bacteria; Approved Standard; Sixth Edition (2004) and in vivo in the septicaemic mouse model against Staphylococcus aureus.
(§2) The antibacterial activity expressed as minimal inhibitory concentration (MIC) was determined according to the approved standard reference recommendations of CLSI (former NCCLS).

[2] = tested on: Moraxella catarrhalis ATCC43618 B407; assay: MIC determination according to CLSI; conditions: ATCC43618, strain B407
Text: as §1, §2

[3] = tested on: Staphylococcus aureus (MSSA) ATCC10390 B6; assay: MIC determination according to CLSI; conditions: ATCC10390, strain B6
Text: as §1, §2

[4] = tested on: Staphylococcus aureus (MSSA) ATCC29213 B7; assay: MIC determination according to CLSI; conditions: ATCC29213, strain B7
Text: as §1, §2

[5] = tested on: Enterococcus faecalis ATCC51299 B5; assay: MIC determination according to CLSI; conditions: ATCC51299, strain B5
Text: as §1, §2

[6] = tested on: Streptococcus pneumoniae ATCC49619 B11; assay: MIC determination according to CLSI; conditions: ATCC49619, strain B11
Text: as §1, §2

[7] = tested on: Enterococcus faecalis ATCC29212 B4; assay: MIC determination according to CLSI; conditions: ATCC29212, strain B4
Text: as §1, §2

[8] = tested on: Staphylococcus aureus, Enterococcus faecalis, Streptococcus pneumoniae, Moraxelia catarrhalis and Escherichia coli; assay: MIC determination according to CLSI, panel of pathogens
Method: as §2

MIC [1] [µg/mL]	MIC [2] [µg/mL]	MIC [3] [µg/mL]	MIC [4] [µg/mL]	MIC [5] [µg/mL]	MIC [6] [µg/mL]	MIC [7] [µg/mL]	factor by which MICs are lower than the MICs of Example 2 ([8]; against at least one of the strains shown in Table 1)	SMILES	antibacterial activity (in vitro) ([8]; against at least one of the clinical relevant bacterial pathogens)
12.8 (≈ 25.6 µM)	≤ 0.0125	≤ 0.0125	≤ 0.0125	6.4 (≈ 12.8 µM)	0.01 (≈ 0.02 µM)	6.4 (≈ 12.8 µM)	≥ 2	C=C[C@]1(C)C[C@@H](OC(=O)CSc2cccc(CO)c2)[C@]2(C)C(C)CCC3(CCC(=O)C32)[C@@H](C)[C@@H]1O (stereo partly shown) [Example 1, 14-O-[(3-Hydroxymethyl-phenylsulfanyl)-acetyl]-mutilin]	very good activity
> 25.6	≤ 0.0125	0.025 (≈ 0.0516 µM)	0.025 (≈ 0.0516 µM)	> 25.6	0.16 (≈ 0.33 µM)	> 25.6	–	C=C[C@]1(C)C[C@@H](OC(=O)CSc2ccc(C)cc2)[C@]2(C)C(C)CCC3(CCC(=O)C32)[C@@H](C)[C@@H]1O (stereo partly shown) [Example 2, 14-O-[(4-Methyl-phenylsulfanyl)-acetyl]-mutilin, reference compound]	–
